The molecules below were run against T1, Recombinant human JAK2 kinase domain protein (Residues 812-1132) (Homo sapiens, UniProt O60674) (assay: JAK2 biochemical assay (microfluidic mobility shift, peptide phosphorylation)). Settings: 25 μM ATP, 0.2 nM total JAK2; Ki calculated from Ki app (tight-binding, competitive); read-out: Biochem JAK2 Ki.
T1 construct: human JAK2 kinase domain protein (Residues 812-1132); made in house; host or cells: insect cells
Summary of the method: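 Insect-cell-expressed human JAK1 (1 nM, residues 854-1154) or JAK2 (0.2 nM, residues 812-1132) phosphorylating 1.5 μM 5-FAM peptide Y-1B with 25 μM ATP, pH 7.2 HEPES, 30 min at 22-23 °C; twelve concentrations up to 1000 nM in duplicate. Mobility-shift % conversion fitted to tight-binding quadratic for Ki^app.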

T1 sequence (O60674 812-1132): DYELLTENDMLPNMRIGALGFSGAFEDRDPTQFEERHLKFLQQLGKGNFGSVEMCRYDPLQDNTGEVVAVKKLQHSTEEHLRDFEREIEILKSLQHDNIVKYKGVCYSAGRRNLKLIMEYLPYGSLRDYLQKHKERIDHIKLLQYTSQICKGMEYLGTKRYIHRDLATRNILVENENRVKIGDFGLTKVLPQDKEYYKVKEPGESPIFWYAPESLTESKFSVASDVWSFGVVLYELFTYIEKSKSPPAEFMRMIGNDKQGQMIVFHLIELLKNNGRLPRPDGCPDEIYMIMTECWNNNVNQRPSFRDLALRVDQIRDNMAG

SMILES	Ki [nM]
CN1CCC(N2CC(n3nnc(Cn4cc(NC(=O)c5cnn6cccnc56)c(-c5cc(OC(F)F)ccc5OC(F)F)n4)n3)C2)CC1 [Example 38, N-[3-[2,5-bis(difluoromethoxy)phenyl]-1-[[2-[1-(1-methyl-4-piperidyl)azetidin-3-yl]tetrazol-5-yl]methyl]pyrazol-4-yl]pyrazolo[1,5-a]pyrimidine-3-carboxamide]	0.44
O=C(Nc1cn(Cc2nnn(C3CNC3)n2)nc1-c1cc(Cl)ccc1OC(F)F)c1cnn2cccnc12 [Example 8, N-[1-[[2-(azetidin-3-yl)tetrazol-5-yl]methyl]-3-[5-chloro-2-(difluoromethoxy)phenyl]pyrazol-4-yl]pyrazolo[1,5-a]pyrimidine-3-carboxamide]	0.28
CNCCn1nnc(Cn2cc(NC(=O)c3cnn4cccnc34)c(-c3cc(OC(F)F)ccc3OC(F)F)n2)n1 [Example 20, N-[3-[2,5-bis(difluoromethoxy)phenyl]-1-[[2-[2-(methylamino)ethyl]tetrazol-5-yl]methyl]pyrazol-4-yl]pyrazolo[1,5-a]pyrimidine-3-carboxamide]	0.46
CN1CCC(n2nnnc2Cn2cc(NC(=O)c3cnn4cccnc34)c(-c3cc(OC(F)F)ccc3OC(F)F)n2)C1 (stereo not shown) [Example 26, N-[3-[2,5-bis(difluoromethoxy)phenyl]-1-[[1-(1-methylpyrrolidin-3-yl)tetrazol-5-yl]methyl]pyrazol-4-yl]pyrazolo[1,5-a]pyrimidine-3-carboxamide]	0.39
O=C(Nc1cn(Cc2nnn(C3CCNC3)n2)nc1-c1cc(OC(F)F)ccc1OC(F)F)c1cnn2cccnc12 (single isomer, unassigned) [Example 28, N-[3-[2,5-bis(difluoromethoxy)phenyl]-1-[(2-pyrrolidin-3-yltetrazol-5-yl)methyl]pyrazol-4-yl]pyrazolo[1,5-a]pyrimidine-3-carboxamide]	0.36
CN1CCC(N2CC(n3nnc(Cn4cc(NC(=O)c5cnn6cccnc56)c(-c5cc(OC(F)F)ccc5OC(F)F)n4)n3)C2)C1 (single isomer, unassigned) [Example 72, N-[3-[2,5-bis(difluoromethoxy)phenyl]-1-[[2-[1-(1-methylpyrrolidin-3-yl)azetidin-3-yl]tetrazol-5-yl]methyl]pyrazol-4-yl]pyrazolo[1,5-a]pyrimidine-3-carboxamide]	0.48
O=C(Nc1cn(Cc2nnn(C3CCNC3)n2)nc1-c1cc(OC(F)F)ccc1OC(F)F)c1cnn2cccnc12 (single isomer, unassigned) [Example 27, N-[3-[2,5-bis(difluoromethoxy)phenyl]-1-[(2-pyrrolidin-3-yltetrazol-5-yl)methyl]pyrazol-4-yl]pyrazolo[1,5-a]pyrimidine-3-carboxamide]	0.38

— patent US12247032B2, “Substituted pyrazolo[1,5-a]pyrimidines as inhibitors of JAK kinases” (Genentech, Inc., priority 2019, dated 2025)
